This note sets out measurements from ChEMBL document CHEMBL1765067, “Absolute configuration of (-)-gambogic acid, an antitumor agent” (2011).

For this test, the system named is HT-29. The experiment in a line: Anticancer activity aganist human HT-29 cells. In kind it is functional. As to conditions: read-out: ED50 (the source's name).
As for `CC(C)=CCc1c2c(c(O)c3c1O[C@]14C(=C[C@@H]5C[C@H]1C(C)(C)O[C@@]4(C/C=C(/C)C(=O)O)C5=O)C3=O)C=CC(C)(C)O2`, the EC50 turned out to be 360 nM. As for `CC(C)=CCC[C@]1(C)C=Cc2c(O)c3c(c(CC=C(C)C)c2O1)O[C@]12C(=C[C@@H]4C[C@H]1C(C)(C)O[C@@]2(C/C=C(/C)C(=O)O)C4=O)C3=O` [GAMBOGIC ACID], the figure is 480 nM; as for `CC(=O)O[C@H]1C(=O)[C@@]2(C)[C@H]([C@H](OC(=O)c3ccccc3)[C@]3(O)C[C@H](OC(=O)[C@H](O)[C@@H](NC(=O)c4ccccc4)c4ccccc4)C(C)=C1C3(C)C)[C@]1(OC(C)=O)CO[C@@H]1C[C@@H]2O` [PACLITAXEL], 0.1 nM.
